Results reported in patent US11304957B2, “Substituted quinazolines for inhibiting kinase activity” (NeuPharma, Inc., priority 2013, dated 2022).

What follows are molecules tested against EGFR (ErbB1) T790M L858R (Homo sapiens (Human), UniProt P00533, L858R/T790M) (assay: Z'-LYTE kinase inhibition assay, EGFR L858R/T790M). Settings: read-out: % inhibition EGFR L858R/T790M (Compound at 0.0137 μM).
Chain of EGFR (ErbB1) T790M L858R (P00533 25-1210 T790M/L858R): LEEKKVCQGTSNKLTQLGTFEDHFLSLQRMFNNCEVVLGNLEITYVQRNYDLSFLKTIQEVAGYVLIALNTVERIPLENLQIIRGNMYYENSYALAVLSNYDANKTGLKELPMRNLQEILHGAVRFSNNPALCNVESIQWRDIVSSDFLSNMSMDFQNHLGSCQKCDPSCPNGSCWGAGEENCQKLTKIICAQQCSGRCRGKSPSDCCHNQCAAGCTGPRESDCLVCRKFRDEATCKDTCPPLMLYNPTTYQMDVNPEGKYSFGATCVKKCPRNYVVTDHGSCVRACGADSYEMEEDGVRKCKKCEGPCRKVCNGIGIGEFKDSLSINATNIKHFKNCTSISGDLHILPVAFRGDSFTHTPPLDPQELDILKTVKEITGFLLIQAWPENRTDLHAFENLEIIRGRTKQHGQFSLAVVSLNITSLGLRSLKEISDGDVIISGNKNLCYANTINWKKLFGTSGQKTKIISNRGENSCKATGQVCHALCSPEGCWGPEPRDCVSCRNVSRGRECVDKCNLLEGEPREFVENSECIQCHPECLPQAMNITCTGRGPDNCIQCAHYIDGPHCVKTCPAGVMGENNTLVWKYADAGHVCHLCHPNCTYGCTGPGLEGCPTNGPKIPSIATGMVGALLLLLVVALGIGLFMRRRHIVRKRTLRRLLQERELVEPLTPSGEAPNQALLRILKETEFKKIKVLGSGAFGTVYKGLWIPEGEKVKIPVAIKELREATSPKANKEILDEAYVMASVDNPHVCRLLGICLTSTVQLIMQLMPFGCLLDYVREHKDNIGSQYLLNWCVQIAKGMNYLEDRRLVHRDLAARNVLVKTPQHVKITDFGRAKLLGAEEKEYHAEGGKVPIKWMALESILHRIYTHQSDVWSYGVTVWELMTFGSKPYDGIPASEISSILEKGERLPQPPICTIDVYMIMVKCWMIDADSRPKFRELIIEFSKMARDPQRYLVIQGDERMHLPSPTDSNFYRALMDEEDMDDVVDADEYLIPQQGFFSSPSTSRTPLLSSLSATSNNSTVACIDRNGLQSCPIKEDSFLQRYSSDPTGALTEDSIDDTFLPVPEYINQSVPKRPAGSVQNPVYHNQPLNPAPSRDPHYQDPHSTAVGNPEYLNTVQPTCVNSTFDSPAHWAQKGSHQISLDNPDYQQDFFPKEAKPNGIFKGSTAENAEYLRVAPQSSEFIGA
Format: biochemical
Experimental: Inhibitory activities of compounds against BTK, EGFR and EGFR mutants (EGFR L858R, EGFR T790M, EGFR L858R/T790M), FGFR1, FGFR2, JAK2, JAK3 and KDR were measured by Invitrogen using Z'-LYTE® Method as briefly described in the following. Test Compounds are screened in 1% DMSO (final) in the well. For 10 point titrations, 3-fold serial dilutions are conducted from the starting concentration. All ATP Solutions are diluted to a 4× working concentration in Kinase Buffer (50 mM HEPES pH 7.5, 0.01% BRIJ-35, 10 mM MgCl2, 1 mM EGTA). Peptide/Kinase Mixtures are diluted to a 2× working concentration in the appropriate Kinase Buffers as described below. (iv) Peptide/Kinase Mixtures for Measurement of EGFR (ErbB1) T790M L858R: The 2×EGFR (ErbB1) […] mixture is prepared in 50 mM HEPES pH 6.5, 0.01% BRIJ-35, 10 mM MgCl2, 1 mM EGTA, 0.02% NaN3. […] After the 1 hour Kinase Reaction incubation, 5 μL of a 1:64 dilution of Development Reagent B is added. Reaction starts by 30-second shaking of mixture consisting of 2.5 μL 4× test compound, 5 μL 2× kinase reaction mixture and 2.5 μL 4×ATP Solution on Bar-coded Corning, low volume NBS, black 384-well plate (Corning Cat. #3676). Then the mixture is incubated for 60-minute at room temperature for the kinase reaction, followed by addition of 5 μL of a 1:1024 dilution of development reagent A and 30-second plate shake. The mixture is then incubated for another 60-minute at room temperature for development reaction. Finally fluorescence is read by plate reader. To determine IC50 of a compound against EGFR, EGFR mutant and other kinases, a series of concentrations of the compound were tested for the inhibition.
`C=CC(=O)Nc1cccc(-c2cccc3cnc(Nc4ccc(N5CCN(C)CC5)nc4)nc23)c1` [Example C041, N-(3-(2-((6-(4-methylpiperazin-1-yl)pyridin-3-yl)amino)quinazolin-8-yl)phenyl)acrylamide] showed an inhibition at 0.0137 µM greater than 50%. `C=CC(=O)Nc1cccc(-c2cccc3cnc(Nc4ccc(OC5CCN(C)CC5F)cc4)nc23)c1` (stereo not drawn) [Example C079, N-(3-(2-((4-((3-fluoro-1-methylpiperidin-4-yl)oxy)phenyl)amino)quinazolin-8-yl)phenyl)acrylamide] was tested, and the inhibition at 0.0137 µM was greater than 50%. `C=CC(=O)Nc1cccc(-c2cccc3cnc(Nc4ccc(N5CCN(C)CC5)c(C(N)=O)c4)nc23)c1` [Example C085, 5-((8-(3-acrylamidophenyl)quinazolin-2-yl)amino)-2-(4-methylpiperazin-1-yl)benzamide] gave an inhibition at 0.0137 µM greater than 50%. Work on `C=CC(=O)Nc1cccc(-c2cccc3cnc(Nc4ccc(NC5CCN(C)CC5F)cc4)nc23)c1` (stereo not drawn) [Example C105, N-(3-(2-((4-((3-fluoro-1-methylpiperidin-4-yl)amino)phenyl)amino)quinazolin-8-yl)phenyl)acrylamide] yielded an inhibition at 0.0137 µM greater than 50%.

Same assay, conditions: read-out: % inhibition EGFR L858R/T790M (Compound at 1 μM)
`C=CC(=O)Nc1cccc(-c2c(C)ccc3cnc(Nc4ccc(N5CCN(C)CC5)cc4)nc23)c1` [Example C034, N-(3-(7-methyl-2-((4-(4-methylpiperazin-1-yl)phenyl)amino)quinazolin-8-yl)phenyl)acrylamide] was tested, and the inhibition at 1 µM was greater than 50%.

What follows are molecules tested against BTK (Homo sapiens (Human), UniProt Q06187) (assay: Z'-LYTE kinase inhibition assay, BTK). Settings: read-out: % inhibition BTK; heading: % inhibition BTK; compound at 0.041 μM.
Chain of BTK (Q06187 whole entry): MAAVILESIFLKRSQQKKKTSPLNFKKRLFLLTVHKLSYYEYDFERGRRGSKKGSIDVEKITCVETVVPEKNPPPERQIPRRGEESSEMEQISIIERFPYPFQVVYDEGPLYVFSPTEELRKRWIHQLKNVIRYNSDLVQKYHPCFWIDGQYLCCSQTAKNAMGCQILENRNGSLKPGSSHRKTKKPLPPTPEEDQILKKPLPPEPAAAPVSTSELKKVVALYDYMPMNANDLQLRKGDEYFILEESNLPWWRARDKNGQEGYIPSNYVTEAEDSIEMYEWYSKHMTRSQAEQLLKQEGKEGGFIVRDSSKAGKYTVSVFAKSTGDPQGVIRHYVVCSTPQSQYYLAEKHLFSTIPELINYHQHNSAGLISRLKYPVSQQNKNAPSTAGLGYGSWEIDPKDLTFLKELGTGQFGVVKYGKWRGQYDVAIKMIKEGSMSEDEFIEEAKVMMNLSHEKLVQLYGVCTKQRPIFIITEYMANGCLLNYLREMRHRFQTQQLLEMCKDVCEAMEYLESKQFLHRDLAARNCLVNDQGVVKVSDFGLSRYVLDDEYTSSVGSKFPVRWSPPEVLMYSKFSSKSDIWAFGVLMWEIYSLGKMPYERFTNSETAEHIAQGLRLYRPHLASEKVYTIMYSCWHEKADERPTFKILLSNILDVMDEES
Format: biochemical
Experimental: (§1) Inhibitory activities of compounds against BTK, EGFR and EGFR mutants (EGFR L858R, EGFR T790M, EGFR L858R/T790M), FGFR1, FGFR2, JAK2, JAK3 and KDR were measured by Invitrogen using Z′-LYTE® Method as briefly described in the following.
(§2) Test Compounds are screened in 1% DMSO (final) in the well. For 10 point titrations, 3-fold serial dilutions are conducted from the starting concentration. All ATP Solutions are diluted to a 4× working concentration in Kinase Buffer (50 mM HEPES pH 7.5, 0.01% BRIJ-35, 10 mM MgCl2, 1 mM EGTA). Peptide/Kinase Mixtures are diluted to a 2× working concentration in the appropriate Kinase Buffers as described below.
(v) Peptide/Kinase Mixtures for Measurement of BTK:
The 2×BTK/Tyr 01 mixture is prepared in 50 mM HEPES pH 7.5, 0.01% BRIJ-35, 10 mM MgCl2, 1 mM EGTA.
The mixture is then incubated for another 60-minute at room temperature for development reaction. Finally fluorescence is read by plate reader.
To determine IC50 of a compound against EGFR, EGFR mutant and other kinases, a series of concentrations of the compound were tested for the inhibition. […] The scale utilized in Table 4 is as follows: +++ less than 100 nM, ++ 100-500 nM and + greater than 500 nM.
`c1ccc(-c2cccc3cnc(Nc4ccc(N5CCOCC5)cc4)nc23)cc1` [Example C004, N-(4-morpholinophenyl)-8-phenylquinazolin-2-amine] gave an inhibition at 0.041 µM of less than 50%. `C=CC(=O)Nc1cccc(-c2nccc3c(N)nc(Nc4ccc(N5CCOCC5)cc4)nc23)c1` [Example C005, N-(3-(4-amino-2-((4-morpholinophenyl)amino)pyrido[3,4-d]pyrimidin-8-yl)phenyl)acrylamide] showed an inhibition at 0.041 µM greater than 50%. `Fc1cccc(-c2cccc3cnc(Nc4ccc(N5CCOCC5)cc4)nc23)c1` [Example C009, 8-(3-fluorophenyl)-N-(4-morpholinophenyl)quinazolin-2-amine] was tested, and the inhibition at 0.041 µM was less than 50%. `C=CC(=O)Nc1cccc(-c2nccc3cnc(Nc4ccc(N5CCOCC5)cc4)nc23)c1` [Example C012, N-(3-(2-((4-morpholinophenyl)amino)pyrido[3,4-d]pyrimidin-8-yl)phenyl)acrylamide] showed an inhibition at 0.041 µM greater than 50%. With `Clc1ccccc1-c1cccc2cnc(Nc3ccc(N4CCNCC4)cc3)nc12` [Example C026, 8-(2-chlorophenyl)-N-(4-(piperazin-1-yl)phenyl)quinazolin-2-amine] the inhibition at 0.041 µM was less than 50%. With `C=CC(=O)Nc1cccc(-c2cccc3cnc(Nc4ccc(OCCN5CCC5)cc4)nc23)c1` [Example C109, N-(3-(2-((4-(2-(azetidin-1-yl)ethoxy)phenyl)amino)quinazolin-8-yl)phenyl)acrylamide] the inhibition at 0.041 µM was greater than 50%. For `C=CC(=O)Nc1cccc(-c2cccc3cnc(Nc4ccc(OCCN(C)C)cc4)nc23)c1` [Example C110, N-(3-(2-((4-(2-(dimethylamino)ethoxy)phenyl)amino)quinazolin-8-yl)phenyl)acrylamide], the inhibition at 0.041 µM was greater than 50%. With `C=CC(=O)Nc1cccc(-c2cccc3cnc(Nc4ccc(O[C@H]5CCOC5)cc4)nc23)c1` [Example C113, (S)-N-(3-(2-((4-((tetrahydrofuran-3-yl)oxy)phenyl)amino)quinazolin-8-yl)phenyl)acrylamide] the inhibition at 0.041 µM was greater than 50%. `C=CC(=O)Nc1cccc(-c2cccc3cnc(Nc4ccc(N[C@@H]5CCOC5)cc4)nc23)c1` [Example C115, (R)-N-(3-(2-((4-((tetrahydrofuran-3-yl)amino)phenyl)amino)quinazolin-8-yl)phenyl)acrylamide] showed an inhibition at 0.041 µM greater than 50%. `C=CC(=O)Nc1cccc(-c2cccc3cnc(Nc4ccc(N5CCNC(=O)C5)cc4)nc23)c1` [Example C117, N-(3-(2-((4-(3-oxopiperazin-1-yl)phenyl)amino)quinazolin-8-yl)phenyl)acrylamide] gave an inhibition at 0.041 µM greater than 50%. For `C=CC(=O)Nc1cccc(-c2cccc3cnc(Nc4ccc(NC5CCN(C)CC5)cc4)nc23)c1` [Example C118, N-(3-(2-((4-((1-methylpiperidin-4-yl)amino)phenyl)amino)quinazolin-8-yl)phenyl)acrylamide], the inhibition at 0.041 µM was greater than 50%. `C=CC(=O)Nc1cccc(-c2cccc3cnc(Nc4ccc(O[C@@H]5CCOC5)cc4)nc23)c1` [Example C119, (R)-N-(3-(2-((4-((tetrahydrofuran-3-yl)oxy)phenyl)amino)quinazolin-8-yl)phenyl)acrylamide] gave an inhibition at 0.041 µM greater than 50%. `C=CC(=O)Nc1cccc(-c2cccc3cnc(Nc4ccc(NC5CCN(C(C)=O)CC5)cc4)nc23)c1` [Example C120, N-(3-(2-((4-((1-acetylpiperidin-4-yl)amino)phenyl)amino)quinazolin-8-yl)phenyl)acrylamide] showed an inhibition at 0.041 µM greater than 50%. `C=CC(=O)Nc1cccc(-c2cccc3cnc(Nc4ccc(O[C@H]5CCN(C)C5)cc4)nc23)c1` [Example C121, (S)-N-(3-(2-((4-((1-methylpyrrolidin-3-yl)oxy)phenyl)amino)quinazolin-8-yl)phenyl)acrylamide] showed an inhibition at 0.041 µM greater than 50%. Work on `C=CC(=O)Nc1cccc(-c2cccc3cnc(Nc4ccc(OC5CN(C(C)=O)C5)cc4)nc23)c1` [Example C122, N-(3-(2-((4-((1-acetylazetidin-3-yl)oxy)phenyl)amino)quinazolin-8-yl)phenyl)acrylamide] yielded an inhibition at 0.041 µM greater than 50%. For `C=CC(=O)Nc1cccc(-c2cccc3cnc(Nc4ccc(O[C@@H]5CCN(C)C5)cc4)nc23)c1` [Example C123, (R)-N-(3-(2-((4-((1-methylpyrrolidin-3-yl)oxy)phenyl)amino)quinazolin-8-yl)phenyl)acrylamide], the inhibition at 0.041 µM was greater than 50%. For `C=CC(=O)Nc1cccc(-c2cccc3cnc(Nc4ccc(NC5CN(C(C)=O)C5)cc4)nc23)c1` [Example C124, N-(3-(2-((4-((1-acetylazetidin-3-yl)amino)phenyl)amino)quinazolin-8-yl)phenyl)acrylamide], the inhibition at 0.041 µM was greater than 50%. With `C=CC(=O)Nc1cccc(-c2cccc3cnc(Nc4ccc(OC5CCN(C(C)=O)CC5)cc4)nc23)c1` [Example C125, N-(3-(2-((4-((1-acetylpiperidin-4-yl)oxy)phenyl)amino)quinazolin-8-yl)phenyl)acrylamide] the inhibition at 0.041 µM was greater than 50%. Molecule `C=CC(=O)Nc1cccc(-c2cccc3cnc(Nc4ccc(OC5CCN(C)CC5)cc4)nc23)c1` [Example C126, N-(3-(2-((4-((1-methylpiperidin-4-yl)oxy)phenyl)amino)quinazolin-8-yl)phenyl)acrylamide] has an inhibition at 0.041 µM greater than 50%.

What follows are molecules tested against JAK2 (Homo sapiens (Human), UniProt O60674) (assay: Z'-LYTE kinase inhibition assay, JAK2). Settings: read-out: % inhibition JAK2; heading: % inhibition JAK2; compound at 0.041 μM.
Chain of JAK2 (O60674 whole entry): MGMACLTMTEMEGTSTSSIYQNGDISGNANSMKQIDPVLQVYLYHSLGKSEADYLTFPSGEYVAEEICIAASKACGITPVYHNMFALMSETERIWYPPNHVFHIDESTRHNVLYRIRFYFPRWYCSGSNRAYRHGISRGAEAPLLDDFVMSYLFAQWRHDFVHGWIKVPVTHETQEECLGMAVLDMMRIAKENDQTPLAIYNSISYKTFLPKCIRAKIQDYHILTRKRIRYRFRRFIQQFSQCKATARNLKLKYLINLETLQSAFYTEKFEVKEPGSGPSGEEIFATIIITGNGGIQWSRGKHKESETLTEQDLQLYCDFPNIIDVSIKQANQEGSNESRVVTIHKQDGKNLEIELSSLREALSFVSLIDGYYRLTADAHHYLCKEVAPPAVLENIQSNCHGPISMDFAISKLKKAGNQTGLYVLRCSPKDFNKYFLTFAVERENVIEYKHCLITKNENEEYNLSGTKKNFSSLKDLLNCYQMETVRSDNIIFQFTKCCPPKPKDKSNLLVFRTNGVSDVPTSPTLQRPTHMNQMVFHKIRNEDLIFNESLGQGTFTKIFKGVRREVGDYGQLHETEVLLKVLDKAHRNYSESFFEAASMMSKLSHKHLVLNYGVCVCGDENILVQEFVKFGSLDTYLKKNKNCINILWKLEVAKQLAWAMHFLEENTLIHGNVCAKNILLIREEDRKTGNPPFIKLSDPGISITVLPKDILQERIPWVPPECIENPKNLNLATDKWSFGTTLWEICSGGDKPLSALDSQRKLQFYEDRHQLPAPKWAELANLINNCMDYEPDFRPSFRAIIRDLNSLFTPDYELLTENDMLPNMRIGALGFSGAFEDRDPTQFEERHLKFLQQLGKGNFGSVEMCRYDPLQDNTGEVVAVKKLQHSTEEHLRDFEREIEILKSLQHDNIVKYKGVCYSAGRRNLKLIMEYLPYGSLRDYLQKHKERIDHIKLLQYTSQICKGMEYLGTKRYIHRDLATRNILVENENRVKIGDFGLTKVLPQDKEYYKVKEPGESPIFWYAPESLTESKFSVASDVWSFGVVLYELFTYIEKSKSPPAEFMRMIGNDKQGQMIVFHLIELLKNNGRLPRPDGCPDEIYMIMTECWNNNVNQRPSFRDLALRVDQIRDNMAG
Format: biochemical
Experimental: as §1, §2
(v) Peptide/Kinase Mixtures for Measurement of JAK2:
The 2×JAK2/Tyr 06 mixture is prepared in 50 mM HEPES pH 7.5, 0.01% BRIJ-35, 10 mM MgCl2, 1 mM EGTA. The final 10 μL Kinase Reaction consists of 0.06-0.81 ng JAK2 and 2 μM Tyr 06 in 50 mM HEPES pH 7.5, 0.01% BRIJ-35, 10 mM MgCl2, 1 mM EGTA. After the 1 hour Kinase Reaction incubation, 5 μL of a 1:64 dilution of Development Reagent A is added.
Reaction starts by 30-second shaking of mixture consisting of 2.5 μL 4× test compound, 5 μL 2× kinase reaction mixture and 2.5 μL 4×ATP Solution on Bar-coded Corning, low volume NBS, black 384-well plate (Corning Cat. #3676). Then the mixture is incubated for 60-minute at room temperature for the kinase reaction, followed by addition of 5 μL of a 1:1024 dilution of development reagent A and 30-second plate shake. The mixture is then incubated for another 60-minute at room temperature for development reaction. Finally fluorescence is read by plate reader.
With `c1ccc(-c2cccc3cnc(Nc4ccc(N5CCOCC5)cc4)nc23)cc1` [Example C004, N-(4-morpholinophenyl)-8-phenylquinazolin-2-amine] the inhibition at 0.041 µM was greater than 50%. In the case of `C=CC(=O)Nc1cccc(-c2nccc3c(N)nc(Nc4ccc(N5CCOCC5)cc4)nc23)c1` [Example C005, N-(3-(4-amino-2-((4-morpholinophenyl)amino)pyrido[3,4-d]pyrimidin-8-yl)phenyl)acrylamide], the inhibition at 0.041 µM is reported as less than 50%. In the case of `C=CC(=O)Nc1cccc(-c2nccc3cnc(Nc4ccc(N5CCOCC5)cc4)nc23)c1` [Example C012, N-(3-(2-((4-morpholinophenyl)amino)pyrido[3,4-d]pyrimidin-8-yl)phenyl)acrylamide], the inhibition at 0.041 µM is reported as less than 50%.
